# Numbers after ± are expanded uncertainties.
# Settings: Liquid; for mass density: 303.15 K, 101.33 kPa, Vibrating tube method; for vapor or sublimation pressure: Ebulliometric method (Recirculating still)
structure (smiles),measurement,setting,value
CCCO [propan-1-ol],mass density,,795.54 ± 0.15 kg/m3
same,vapor or sublimation pressure,347.65 K,40 ± 0.15 kPa
same,vapor or sublimation pressure,370.23 K,101.33 ± 0.15 kPa
CCO [ethanol],mass density,,780.78 ± 0.15 kg/m3
same,vapor or sublimation pressure,329.63 K,40 ± 0.15 kPa
same,vapor or sublimation pressure,351.51 K,101.33 ± 0.15 kPa
CCCCO [butan-1-ol],mass density,,801.92 ± 0.14 kg/m3
same,vapor or sublimation pressure,366.81 K,40 ± 0.14 kPa
same,vapor or sublimation pressure,390.72 K,101.33 ± 0.14 kPa
CO [methanol],mass density,,781.81 ± 0.15 kg/m3
same,vapor or sublimation pressure,315.8 K,40 ± 0.15 kPa
same,vapor or sublimation pressure,337.97 K,101.33 ± 0.15 kPa
"CSSC [2,3-dithiabutane]",mass density,,1051.14 ± 0.14 kg/m3
same,vapor or sublimation pressure,353.42 K,40 ± 0.13 kPa
same,vapor or sublimation pressure,382.87 K,101.33 ± 0.14 kPa
